Measurements from patent US4329339A, “Anthracyclinones and derivatives thereof” (Hoffmann-La Roche Inc., priority 1980, dated 1982).
In brackets after ≈: the same amount, converted by molar mass. Where two headings read alike, the source gives them in different places.

Key:
[1] = test system: Staphylococcus aureus 209P IAM 1011; test: MIC, agar streak method, Staphylococcus aureus 209P IAM 1011; format: cell-based; conditions: Heart infusion agar
Description: (§1) | (1) Heart infusion agar

[2] = test system: Escherichia coli K-12 IAM 1264; test: MIC, agar streak method, Escherichia coli K-12 IAM 1264; format: cell-based; conditions: IAM1264, Heart infusion agar
Description: as §1

[3] = test system: Candida tropicalis ATCC 13803; test: MIC, agar streak method, Candida tropicalis ATCC 13803; format: cell-based; conditions: ATCC13803, Sabouraud dextrose agar
Description: (§2) | (2) Sabouraud dextrose agar

[4] = test system: Staphylococcus aureus 209P Stf; test: MIC, agar streak method, Staphylococcus aureus 209P Stf; format: cell-based
Sarcina lutea IAM 1009 = test: MIC, agar streak method, Sarcina lutea IAM 1009; format: cell-based; conditions: Micrococcus luteus, IAM1009, Heart infusion agar
Description: as §1

[5] = test system: Klebsiella pneumoniae IFO 3512; test: MIC, agar streak method, Klebsiella pneumoniae IFO 3512; format: cell-based; conditions: IFO3512, Heart infusion agar
Description: as §1

[6] = test system: Micrococcus flavus ATCC 10240; test: MIC, agar streak method, Micrococcus flavus ATCC 10240; format: cell-based; conditions: ATCC10240, Heart infusion agar
Description: as §1

[7] = test system: Proteus vulgaris IAM 1025; test: MIC, agar streak method, Proteus vulgaris IAM 1025; format: cell-based; conditions: IAM1025, Heart infusion agar
Description: as §1

[8] = test system: Escherichia coli NIHJ IFO 12734; test: MIC, agar streak method, Escherichia coli NIHJ IFO 12734; format: cell-based; conditions: IFO12734, Heart infusion agar
Description: as §1

[9] = test system: Mycobacterium smegmatis IFO 13167; test: MIC, agar streak method, Mycobacterium smegmatis IFO 13167; format: cell-based; conditions: Mycolicibacterium smegmatis, IFO13167, Heart infusion agar
Description: as §1

[10] = test system: Staphylococcus epidermidis IFO 12993; test: MIC, agar streak method, Staphylococcus epidermidis IFO 12993; format: cell-based; conditions: IFO12993, Heart infusion agar
Description: as §1

[11] = test system: Serratia marcescens IFO 12648; test: MIC, agar streak method, Serratia marcescens IFO 12648; format: cell-based; conditions: IFO12648, Heart infusion agar
Description: as §1

[12] = Acute intraperitoneal toxicity in mice; conditions: mouse, in vivo, ip, judged 72 hours after a single intraperitoneal injection
[13] = test system: Bacillus subtilis IAM 1027; test: MIC, agar streak method, Bacillus subtilis IAM 1027; format: cell-based; conditions: IAM1027, Heart infusion agar
Description: as §1

[14] = test system: Pseudomonas aeruginosa IFO 12689; test: MIC, agar streak method, Pseudomonas aeruginosa IFO 12689; format: cell-based; conditions: IFO12689, Heart infusion agar
Description: as §1

[15] = test system: Candida albicans ATCC 10231; test: MIC, agar streak method, Candida albicans ATCC 10231; format: cell-based; conditions: ATCC10231, Sabouraud dextrose agar
Description: as §2

P388 leukaemia = test: Antitumour effect against P388 leukaemia in mice; format: in vivo; conditions: 1×10^6 P388 cells i.p., CDF1 mice
Protocol: The anthracycline glycosides provided by the present invention were tested against P388 leukaemia in mice. When CDF1 mice are inoculated with 1×10^6 cells of P388 intraperitoneally and each of the antibiotics is administered intraperitoneally on days 1, 5 and 9, the survival time of the treated mice is prolonged as shown in Table 7 hereinafter.

[16] = test system: Saccharomyces cerevisiae ATCC 9763; test: MIC, agar streak method, Saccharomyces cerevisiae ATCC 9763; format: cell-based; conditions: ATCC9763, Sabouraud dextrose agar
Description: as §2

Bacillus cereus Ro 179B = test: MIC, agar streak method, Bacillus cereus Ro 179B; format: cell-based; conditions: RO179B, Heart infusion agar
Description: as §1

[17] = Staphylococcus aureus 209P Stf, read-out: MIC
[18] = 1.88 mg/kg/day i.p. on days 1, 5 and 9
[19] = 3.75 mg/kg/day i.p. on days 1, 5 and 9
[20] = 7.5 mg/kg/day i.p. on days 1, 5 and 9
[21] = 15 mg/kg/day i.p. on days 1, 5 and 9

## COC(=O)C1c2cc3c(c(O)c2C(OC2CC(N(C)C)C(OC4CC(O)C(OC5CCC(=O)C(C)O5)C(C)O4)C(C)O2)CC1(C)O)C(=O)c1c(O)cccc1C3=O (stereo not shown) [Auramycin A]
[1]
  MIC: 1.56 µg/mL (≈ 1.96 µM)
[2]
  MIC: > 100 µg/mL
[3]
  MIC: > 100 µg/mL
[4]; [17]
  MIC: 0.78 µg/mL (≈ 0.978 µM)
Sarcina lutea IAM 1009
  MIC: 0.1 µg/mL (≈ 0.125 µM)
[5]
  MIC: > 100 µg/mL
[6]
  MIC: 0.1 µg/mL (≈ 0.125 µM)
[7]
  MIC: > 100 µg/mL
[8]
  MIC: > 100 µg/mL
[9]
  MIC: 6.25 µg/mL (≈ 7.83 µM)
[10]
  MIC: 3.12 µg/mL (≈ 3.91 µM)
[11]
  MIC: > 100 µg/mL
[12]
  LD50 at 72 h: ~100 mg/kg
[13]
  MIC: 3.12 µg/mL (≈ 3.91 µM)
[14]
  MIC: > 100 µg/mL
[15]
  MIC: > 100 µg/mL
P388 leukaemia; [18]
  Mean survival (T/C, %): 139%
P388 leukaemia; [19]
  Mean survival (T/C, %): 129%
P388 leukaemia; [20]
  Mean survival (T/C, %): 134%
P388 leukaemia; [21]
  Mean survival (T/C, %): 170%
[16]
  MIC: > 100 µg/mL
Bacillus cereus Ro 179B
  MIC: 0.39 µg/mL (≈ 0.489 µM)

## COC(=O)C1c2cc3c(c(O)c2C(OC2CC(N(C)C)C(OC4CC5OC6CC(=O)C(C)OC6OC5C(C)O4)C(C)O2)CC1(C)O)C(=O)c1c(O)cccc1C3=O (stereo not shown) [Auramycin B]
[1]
  MIC: 0.39 µg/mL (≈ 0.49 µM)
[2]
  MIC: > 100 µg/mL
[3]
  MIC: > 100 µg/mL
[4]; [17]
  MIC: 0.39 µg/mL (≈ 0.49 µM)
Sarcina lutea IAM 1009
  MIC: 0.05 µg/mL (≈ 0.0628 µM)
[5]
  MIC: > 100 µg/mL
[6]
  MIC: 0.05 µg/mL (≈ 0.0628 µM)
[7]
  MIC: > 100 µg/mL
[8]
  MIC: > 100 µg/mL
[9]
  MIC: 3.12 µg/mL (≈ 3.92 µM)
[10]
  MIC: 1.56 µg/mL (≈ 1.96 µM)
[11]
  MIC: > 100 µg/mL
[12]
  LD50 at 72 h: ~100 mg/kg
[13]
  MIC: 0.78 µg/mL (≈ 0.98 µM)
[14]
  MIC: > 100 µg/mL
[15]
  MIC: > 100 µg/mL
P388 leukaemia; [18]
  Mean survival (T/C, %): 113%
P388 leukaemia; [19]
  Mean survival (T/C, %): 124%
P388 leukaemia; [20]
  Mean survival (T/C, %): 149%
P388 leukaemia; [21]
  Mean survival (T/C, %): 196%
[16]
  MIC: > 100 µg/mL
Bacillus cereus Ro 179B
  MIC: 0.2 µg/mL (≈ 0.251 µM)

## COC(=O)C1c2cc3c(c(O)c2C(OC2CC(N(C)C)C(OC4CC(O)C(OC5CCC(=O)C(C)O5)C(C)O4)C(C)O2)CC1(O)CC(C)=O)C(=O)c1c(O)cccc1C3=O (stereo not shown) [Sulfurmycin A]
[1]
  MIC: 0.78 µg/mL (≈ 0.929 µM)
[2]
  MIC: > 100 µg/mL
[3]
  MIC: > 100 µg/mL
[4]; Staphylococcus aureus, 209P
  MIC: 0.2 µg/mL (≈ 0.238 µM)
Sarcina lutea IAM 1009
  MIC: 0.1 µg/mL (≈ 0.119 µM)
[5]
  MIC: > 100 µg/mL
[6]
  MIC: 0.2 µg/mL (≈ 0.238 µM)
[7]
  MIC: > 100 µg/mL
[8]
  MIC: > 100 µg/mL
[9]
  MIC: 25 µg/mL (≈ 29.8 µM)
[10]
  MIC: 3.12 µg/mL (≈ 3.71 µM)
[11]
  MIC: > 100 µg/mL
[12]
  LD50 at 72 h: ~100 mg/kg
[13]
  MIC: 0.78 µg/mL (≈ 0.929 µM)
[14]
  MIC: > 100 µg/mL
[15]
  MIC: > 100 µg/mL
P388 leukaemia; [18]
  Mean survival (T/C, %): 124%
P388 leukaemia; [19]
  Mean survival (T/C, %): 134%
P388 leukaemia; [20]
  Mean survival (T/C, %): 144%
P388 leukaemia; [21]
  Mean survival (T/C, %): 165%
[16]
  MIC: > 100 µg/mL
Bacillus cereus Ro 179B
  MIC: 0.2 µg/mL (≈ 0.238 µM)

## COC(=O)C1c2cc3c(c(O)c2C(OC2CC(N(C)C)C(OC4CC5OC6CC(=O)C(C)OC6OC5C(C)O4)C(C)O2)CC1(O)CC(C)=O)C(=O)c1c(O)cccc1C3=O (stereo not shown) [Sulfurmycin B]
[1]
  MIC: 0.78 µg/mL (≈ 0.931 µM)
[2]
  MIC: > 100 µg/mL
[3]
  MIC: > 100 µg/mL
[4]; Staphylococcus aureus, 209P
  MIC: 0.39 µg/mL (≈ 0.465 µM)
Sarcina lutea IAM 1009
  MIC: 0.1 µg/mL (≈ 0.119 µM)
[5]
  MIC: > 100 µg/mL
[6]
  MIC: 0.1 µg/mL (≈ 0.119 µM)
[7]
  MIC: > 100 µg/mL
[8]
  MIC: > 100 µg/mL
[9]
  MIC: 6.25 µg/mL (≈ 7.46 µM)
[10]
  MIC: 1.56 µg/mL (≈ 1.86 µM)
[11]
  MIC: > 100 µg/mL
[12]
  LD50 at 72 h: 25 to 50 mg/kg
[13]
  MIC: 0.78 µg/mL (≈ 0.931 µM)
[14]
  MIC: > 100 µg/mL
[15]
  MIC: > 100 µg/mL
P388 leukaemia; [18]
  Mean survival (T/C, %): 124%
P388 leukaemia; [19]
  Mean survival (T/C, %): 124%
P388 leukaemia; [20]
  Mean survival (T/C, %): 155%
P388 leukaemia; [21]
  Mean survival (T/C, %): 165%
[16]
  MIC: > 100 µg/mL
Bacillus cereus Ro 179B
  MIC: 0.39 µg/mL (≈ 0.465 µM)
